Experiments:
[1] = tested on: methicillin resistant S. aureus Mu50 strain (S. aureus ATCC700699) biofilm; assay: Biofilm susceptibility to vancomycin, pre-treatment regimen (biofilm formed in presence of compound, then vancomycin); type: cell-based; settings: for Pretreat (100 μM): percentage Colony Forming Units (CFU's) per biofilm: compound 100 μM during biofilm formation; for Pretreat (100 μM): percentage Colony Forming Units (CFU's) per biofilm / Pretreat. (25 μM): percentage Colony Forming Units (CFU's) per biofilm: then VAN 20 μg/ml, compared to the untreated (negative) control; for EC50: concentration needed to get 50% killing compared to antibiotic alone (VAN 20 μg/ml) and complete killing, read-out: Pretreat. (EC50); for Pretreat. (25 μM): percentage Colony Forming Units (CFU's) per biofilm: compound 25 μM during biofilm formation
How it was run: (§1)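 Mu50 biofilms from 10^8 CFU/ml inoculum (4 h adhesion, then 20 h, 37 °C). Pre-treatment: compound (0.1-250 μM) present during biofilm formation, then vancomycin 20 μg/ml alone 24 h; combination: mature biofilm given vancomycin 20 μg/ml plus compound 24 h. Survivors counted by plating versus vancomycin alone.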

[2] = tested on: methicillin resistant S. aureus Mu50 strain (S. aureus ATCC700699) biofilm; assay: Biofilm susceptibility to vancomycin, combination treatment regimen (mature biofilm treated with compound plus vancomycin); type: cell-based; settings: for Combin. (100 μM): percentage Colony Forming Units (CFU's) per biofilm: compound 100 μM together with VAN 20 μg/ml on mature biofilm; for Combin. (100 μM): percentage Colony Forming Units (CFU's) per biofilm / Combin. (25 μM): percentage Colony Forming Units (CFU's) per biofilm: compared to the untreated (negative) control; for EC50: concentration needed to get 50% killing compared to antibiotic alone (VAN 20 μg/ml) and complete killing, read-out: Combin. (EC50); for Combin. (25 μM): percentage Colony Forming Units (CFU's) per biofilm: compound 25 μM together with VAN 20 μg/ml on mature biofilm
How it was run: as §1

SMILES | Pretreat (100 μM): percentage Colony Forming Units (CFU's) per biofilm [1] [percentage] | EC50 [1] [µM] | Combin. (100 μM): percentage Colony Forming Units (CFU's) per biofilm [2] [percentage] | EC50 [2] [µM] | Pretreat. (25 μM): percentage Colony Forming Units (CFU's) per biofilm [1] [percentage] | Combin. (25 μM): percentage Colony Forming Units (CFU's) per biofilm [2] [percentage]
O=C(NC[C@]1(O)CO[C@H](CN2C(=O)c3ccccc3C2=O)[C@H]1O)c1ccc(-c2ccccc2)cc1 [compound 254, N-(((3S,4R,5R)-5-((1,3-dioxoisoindolin-2-yl)methyl)-3,4-dihydroxytetrahydrofuran-3-yl)methyl)-[1,1′-biphenyl]-4-carboxamide] | 3.52 | 4.79 | 30.44 | 57.1 |  | 
O=C(NC[C@H]1OC(O)[C@@](O)(CNC(=O)c2ccccc2)[C@@H]1O)c1ccccc1 (stereo partly drawn) [compound 21, N,N′-(((2R,3R,4R)-3,4,5-trihydroxytetrahydrofuran-2,4-diyl)bis(methylene))dibenzamide] | 18.04 | 73.6 | 56.02 | 154 |  | 
O=C(NC[C@]1(O)CO[C@H](CNC(=O)c2cccnc2Cl)[C@H]1O)c1ccccc1 [compound 199, N-(((2R,3R,4S)-4-(benzamidomethyl)-3,4-dihydroxytetrahydrofuran-2-yl)methyl)-2-chloronicotinamide] | 68.76 | > 250 | 65.56 | > 250 |  | 
O=C(NC[C@H]1OC[C@@](O)(CNC(=O)c2ccccc2)[C@@H]1O)c1ccc2ccccc2c1 [compound 185, N-(((2R,3R,4S)-4-(benzamidomethyl)-3,4-dihydroxytetrahydrofuran-2-yl)methyl)-2-naphthamide] | 22.11 |  | 36.32 |  |  | 
Cn1c(C(=O)NC[C@H]2OC[C@@](O)(CNC(=O)c3ccccc3)[C@@H]2O)cc2ccccc21 [compound 186, N-(((2R,3R,4S)-4-(benzamidomethyl)-3,4-dihydroxytetrahydrofuran-2-yl)methyl)-1-methyl-1H-indole-2-carboxamide] | 41.45 |  | 42.75 |  |  | 
COc1ccccc1C(=O)NC[C@H]1OC[C@@](O)(CNC(=O)c2ccccc2)[C@@H]1O [compound 172, N-(((2R,3R,4S)-4-(benzamidomethyl)-3,4-dihydroxytetrahydrofuran-2-yl)methyl)-2-methoxybenzamide] | 15.37 |  | 31.40 |  |  | 
COc1ccc(C(=O)NC[C@H]2OC[C@@](O)(CNC(=O)c3ccccc3)[C@@H]2O)cc1OC [compound 183, N-(((2R,3R,4S)-4-(benzamidomethyl)-3,4-dihydroxytetrahydrofuran-2-yl)methyl)-3,4-dimethoxybenzamide] | 60.04 |  | 61.60 |  |  | 
O=C(NC[C@H]1OC[C@@](O)(CNC(=O)c2ccccc2)[C@@H]1O)c1ccncc1 [compound 158, N-(((2R,3R,4S)-4-(benzamidomethyl)-3,4-dihydroxytetrahydrofuran-2-yl)methyl)isonicotinamide] | 7.268 | 9.94 | 13.89 | 19.2 |  | 
O=C(NC[C@H]1OC[C@@](O)(CNC(=O)c2ccccc2Cl)[C@@H]1O)c1ccccc1Cl [compound 249, N,N′-(((2R,3R,4S)-3,4-dihydroxytetrahydrofuran-2,4-diyl)bis(methylene))bis(2-chlorobenzamide)] | 6.67 | 5.36 | 13.59 | 28.4 |  | 
O=C(NC[C@]1(O)CO[C@H](CNS(=O)(=O)c2ccccc2)[C@H]1O)c1ccccc1 [compound 215, N-(((3S,4R,5R)-3,4-dihydroxy-5-(phenylsulfonamidomethyl)tetrahydrofuran-3-yl)methyl)benzamide] | 22.23 |  | 31.29 |  |  | 
Cc1ccccc1C(=O)NC[C@]1(O)CO[C@H](CNC(=O)c2ccccc2Cl)[C@H]1O [compound 244, 2-chloro-N-(((2R,3R,4S)-3,4-dihydroxy-4-((2-methylbenzamido)methyl)tetrahydrofuran-2-yl)methyl)benzamide] |  | 56.4 |  | 124 | 41.07 | 54.77
O=C(NC[C@]1(O)CO[C@H](CN2C(=O)c3ccccc3C2=O)[C@H]1O)c1ccccc1 [compound 173, N-(((3S,4R,5R)-5-((1,3-dioxoisoindolin-2-yl)methyl)-3,4-dihydroxytetrahydrofuran-3-yl)methyl)benzamide] | 11.18 | 5.01 | 8.805 | 8.3 |  | 
O=C(NC[C@]1(O)CO[C@H](CNC(=O)c2c(Cl)cc(Cl)cc2Cl)[C@H]1O)c1ccccc1 [compound 194, N-(((2R,3R,4S)-4-(benzamidomethyl)-3,4-dihydroxytetrahydrofuran-2-yl)methyl)-2,4,6-trichlorobenzamide] | 20.50 |  | 13.31 |  |  | 
O=C(NC[C@H]1OC[C@@](O)(CNC(=O)c2ccccc2)[C@@H]1O)c1cccc(Cl)c1 [compound 162, N-(((2R,3R,4S)-4-(benzamidomethyl)-3,4-dihydroxytetrahydrofuran-2-yl)methyl)-3-chlorobenzamide] | 24.07 |  | 29.06 |  |  | 
O=C(Cc1ccccc1)NC[C@]1(O)CO[C@H](CNC(=O)c2ccccc2Cl)[C@H]1O [compound 259, 2-chloro-N-(((2R,3R,4S)-3,4-dihydroxy-4-((2-phenylacetamido)methyl)tetrahydrofuran-2-yl)methyl)benzamide] | 55.12 |  | 71.25 |  |  | 
O=C(NC[C@H]1OC[C@@](O)(CNC(=O)c2ccccc2)[C@@H]1O)c1ccc(F)cc1 [compound 152, N-(((2R,3R,4S)-4-(benzamidomethyl)-3,4-dihydroxytetrahydrofuran-2-yl)methyl)-4-fluorobenzamide] | 15.07 |  | 14.05 |  |  | 
O=C(NC[C@]1(O)CO[C@H](CNS(=O)(=O)C(F)(F)F)[C@H]1O)c1ccccc1 [compound 214, N-(((3S,4R,5R)-3,4-dihydroxy-5-(((trifluoromethyl)sulfonamido)methyl)tetrahydrofuran-3-yl)methyl)benzamide] | 29.28 |  | 42.85 |  |  | 
O=C(NC[C@]1(O)CO[C@H](CNC(=O)c2cccnn2)[C@H]1O)c1ccccc1 [compound 206, N-(((2R,3R,4S)-4-(benzamidomethyl)-3,4-dihydroxytetrahydrofuran-2-yl)methyl)pyridazine-3-carboxamide] | 6.460 |  | 15.17 |  |  | 
CN(C)c1ccc(C(=O)NC[C@]2(O)CO[C@H](CNC(=O)c3ccccc3Cl)[C@H]2O)cc1 [compound 237, 2-chloro-N-(((2R,3R,4S)-4-((4-(dimethylamino)benzamido)methyl)-3,4-dihydroxytetrahydrofuran-2-yl)methyl)benzamide] |  | 47.6 |  | 69.7 | 58.79 | 47.56
O=C(NC[C@H]1OC[C@@](O)(CNC(=O)c2ccccc2)[C@@H]1O)c1ccc(Cl)c(Cl)c1 [compound 182, N-(((2R,3R,4S)-4-(benzamidomethyl)-3,4-dihydroxytetrahydrofuran-2-yl)methyl)-3,4-dichlorobenzamide] | 42.13 |  | 33.81 |  |  | 
O=C(NC[C@]1(O)CO[C@H](CNC(=O)c2cnccn2)[C@H]1O)c1ccccc1 [compound 208, N-(((2R,3R,4S)-4-(benzamidomethyl)-3,4-dihydroxytetrahydrofuran-2-yl)methyl)pyrazine-2-carboxamide] | 10.52 |  | 18.77 |  |  | 
